Results: paper PMC10938783, “A novel pan-PI3K inhibitor KTC1101 synergizes with anti-PD-1 therapy by targeting tumor suppression and immune activation” (Molecular Cancer, 2024)

System: B16 cells gene expression
Assay: RNA-Seq (DEGs, GSEA, heatmaps) of B16 cells
Settings: for NES / enrichmentScore: KTC 0.2μM
[1] = B16 cells, GSEA gene set HALLMARK_ADIPOGENESIS
[2] = B16 cells, GSEA gene set HALLMARK_ALLOGRAFT_REJECTION
[3] = B16 cells, GSEA gene set HALLMARK_ANDROGEN_RESPONSE
[4] = B16 cells, GSEA gene set HALLMARK_APICAL_JUNCTION
[5] = B16 cells, GSEA gene set HALLMARK_APICAL_SURFACE
[6] = B16 cells, GSEA gene set HALLMARK_APOPTOSIS
[7] = B16 cells, GSEA gene set HALLMARK_BILE_ACID_METABOLISM
[8] = B16 cells, GSEA gene set HALLMARK_CHOLESTEROL_HOMEOSTASIS
[9] = B16 cells, GSEA gene set HALLMARK_COAGULATION
[10] = B16 cells, GSEA gene set HALLMARK_COMPLEMENT
[11] = B16 cells, GSEA gene set HALLMARK_DNA_REPAIR
[12] = B16 cells, GSEA gene set HALLMARK_E2F_TARGETS
[13] = B16 cells, GSEA gene set HALLMARK_EPITHELIAL_MESENCHYMAL_TRANSITION
[14] = B16 cells, GSEA gene set HALLMARK_ESTROGEN_RESPONSE_EARLY
[15] = B16 cells, GSEA gene set HALLMARK_ESTROGEN_RESPONSE_LATE
[16] = B16 cells, GSEA gene set HALLMARK_FATTY_ACID_METABOLISM
[17] = B16 cells, GSEA gene set HALLMARK_G2M_CHECKPOINT
[18] = B16 cells, GSEA gene set HALLMARK_GLYCOLYSIS
[19] = B16 cells, GSEA gene set HALLMARK_HEDGEHOG_SIGNALING
[20] = B16 cells, GSEA gene set HALLMARK_HEME_METABOLISM
[21] = B16 cells, GSEA gene set HALLMARK_HYPOXIA
[22] = B16 cells, GSEA gene set HALLMARK_IL2_STAT5_SIGNALING
[23] = B16 cells, GSEA gene set HALLMARK_IL6_JAK_STAT3_SIGNALING
[24] = B16 cells, GSEA gene set HALLMARK_INFLAMMATORY_RESPONSE
[25] = B16 cells, GSEA gene set HALLMARK_INTERFERON_ALPHA_RESPONSE
[26] = B16 cells, GSEA gene set HALLMARK_INTERFERON_GAMMA_RESPONSE
[27] = B16 cells, GSEA gene set HALLMARK_KRAS_SIGNALING_DN
[28] = B16 cells, GSEA gene set HALLMARK_KRAS_SIGNALING_UP
[29] = B16 cells, GSEA gene set HALLMARK_MITOTIC_SPINDLE
[30] = B16 cells, GSEA gene set HALLMARK_MTORC1_SIGNALING
[31] = B16 cells, GSEA gene set HALLMARK_MYC_TARGETS_V1
[32] = B16 cells, GSEA gene set HALLMARK_MYC_TARGETS_V2
[33] = B16 cells, GSEA gene set HALLMARK_MYOGENESIS
[34] = B16 cells, GSEA gene set HALLMARK_NOTCH_SIGNALING
[35] = B16 cells, GSEA gene set HALLMARK_OXIDATIVE_PHOSPHORYLATION
[36] = B16 cells, GSEA gene set HALLMARK_P53_PATHWAY

COc1cc(N)cc2c1nc(C(F)F)n2-c1nc(N2CCCOCC2)nc(N2CCOCC2)n1 [KTC1101, 2-(difluoromethyl)-4-methoxy-1-(4-morpholino-6-(1,4-oxazepan-4-yl)-1,3,5-triazin-2-yl)-1H-benzo[d]imidazol-6-amine]
NES, mmu05152 Tuberculosis: -0.8664 | NES, mmu05164 Influenza A: 0.7158 | NES, mmu05169 Epstein-Barr virus infection: 0.9901 | enrichmentScore, mmu05152 Tuberculosis: -0.1994 | enrichmentScore, mmu05164 Influenza A: 0.2008 | enrichmentScore, mmu05169 Epstein-Barr virus infection: 0.2613 | immune pathways TNFα signaling via NF-κB, inflammatory response, chemokine signaling, cytokine-cytokine receptor interaction, IL-2-STAT5 (GSEA) (B16 cells, 0.04 and 0.2 μM, 48 h): significantly upregulated at both tested concentrations | NES [1]: -1.91 | enrichmentScore [1]: -0.3889 | NES [2]: 1.691 | enrichmentScore [2]: 0.4865 | NES [3]: 0.8627 | enrichmentScore [3]: 0.2417 | NES [4]: 1.3836 | enrichmentScore [4]: 0.3738 | NES [5]: -2.057 | enrichmentScore [5]: -0.6354 | NES [6]: 0.9502 | enrichmentScore [6]: 0.2533 | NES [7]: -0.7889 | enrichmentScore [7]: -0.209 | NES [8]: -2.882 | enrichmentScore [8]: -0.7203 | NES [9]: 2.055 | enrichmentScore [9]: 0.594 | NES [10]: 1.839 | enrichmentScore [10]: 0.5017 | NES [11]: -0.6206 | enrichmentScore [11]: -0.1386 | NES [12]: -2.092 | enrichmentScore [12]: -0.4182 | NES [13]: 1.653 | enrichmentScore [13]: 0.443 | NES [14]: 1.194 | enrichmentScore [14]: 0.32 | NES [15]: -1.354 | enrichmentScore [15]: -0.2968 | NES [16]: -1.5293 | enrichmentScore [16]: -0.3352 | NES [17]: -1.723 | enrichmentScore [17]: -0.3452 | NES [18]: -3.021 | enrichmentScore [18]: -0.6285 | NES [19]: -1.553 | enrichmentScore [19]: -0.4866 | NES [20]: -0.8539 | enrichmentScore [20]: -0.1842 | NES [21]: -1.667 | enrichmentScore [21]: -0.3411 | NES [22]: 1.6961 | enrichmentScore [22]: 0.4531 | NES [23]: 1.437 | enrichmentScore [23]: 0.4564 | NES [24]: 1.614 | enrichmentScore [24]: 0.4471 | NES [25]: -0.8696 | enrichmentScore [25]: -0.2269 | NES [26]: 1.08 | enrichmentScore [26]: 0.2921 | NES [27]: 1.399 | enrichmentScore [27]: 0.4365 | NES [28]: 2.0673 | enrichmentScore [28]: 0.5585 | NES [29]: -1.3285 | enrichmentScore [29]: -0.2672 | NES [30]: -3.5229 | enrichmentScore [30]: -0.6921 | NES [31]: -0.8926 | enrichmentScore [31]: -0.1781 | NES [32]: -0.5144 | enrichmentScore [32]: -0.1367 | NES [33]: 1.795 | enrichmentScore [33]: 0.4818 | NES [34]: 1.2511 | enrichmentScore [34]: 0.4419 | NES [35]: -2.275 | enrichmentScore [35]: -0.46 | NES [36]: -1.372 | enrichmentScore [36]: -0.2855 | NES (B16 cells, GSEA gene set HALLMARK_PEROXISOME): -1.588
